Patent US8129371B2, “Thienopyrimidine and pyrazolopyrimidine compounds and their use as mTOR kinase and PI3 kinase inhibitors” (Wyeth LLC, priority 2007, dated 2012)
pIC50: −log10 of the molar value.

Tests used:
breast line MDA468 = assay: In vitro cell culture growth assay (MTS), MDA468; assay type: cell-based; settings: Homo sapiens, 72 h, MDA468 cells, three days after drug treatment
Method in brief: (§1)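 Growth is reported as percent of vehicle-treated control grown in the same plate, with viability determined by metabolic conversion of MTS dye and absorbance read at 490 nm. Compounds were applied one day after plating and left for three days.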

prostate line LNCap = assay: In vitro cell culture growth assay (MTS), LNCap; assay type: cell-based; settings: Homo sapiens, LNCaP, 72 h, LNCap cells, three days after drug treatment
Method in brief: as §1

Human mTOR (FLAG-TOR) = target: T1, Human mTOR (FLAG-TOR) (Homo sapiens, UniProt P42345); assay: Human mTOR kinase assay with purified enzyme, DELFIA format; assay type: biochemical
T1 construct: FLAG
Method in brief: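 DELFIA readout: Eu-anti-P(T389)-S6K antibody (40 ng/mL, 1 h) on captured His6-S6K from the stopped reaction. Kinase step used purified FLAG-tagged human mTOR with test compound in HEPES (pH 7.4)/MnCl2/DTT buffer, 2 h at room temperature (linear 1–6 h), terminated by EDTA/EGTA.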

PI3K [1] = target: T2, PI3K (Homo sapiens, UniProt P42336); assay: Fluorescence polarization assay for PI3K; assay type: biochemical; settings: PI3 Kinase α; read-out: PI3 Kinase α IC50
T2 construct: PI3 Kinase α IC50; other: PI3 Kinase α; other: PI3 Kinase α isoform, fluorescence polarization
T2 sequence (P42336 whole entry, canonical isoform): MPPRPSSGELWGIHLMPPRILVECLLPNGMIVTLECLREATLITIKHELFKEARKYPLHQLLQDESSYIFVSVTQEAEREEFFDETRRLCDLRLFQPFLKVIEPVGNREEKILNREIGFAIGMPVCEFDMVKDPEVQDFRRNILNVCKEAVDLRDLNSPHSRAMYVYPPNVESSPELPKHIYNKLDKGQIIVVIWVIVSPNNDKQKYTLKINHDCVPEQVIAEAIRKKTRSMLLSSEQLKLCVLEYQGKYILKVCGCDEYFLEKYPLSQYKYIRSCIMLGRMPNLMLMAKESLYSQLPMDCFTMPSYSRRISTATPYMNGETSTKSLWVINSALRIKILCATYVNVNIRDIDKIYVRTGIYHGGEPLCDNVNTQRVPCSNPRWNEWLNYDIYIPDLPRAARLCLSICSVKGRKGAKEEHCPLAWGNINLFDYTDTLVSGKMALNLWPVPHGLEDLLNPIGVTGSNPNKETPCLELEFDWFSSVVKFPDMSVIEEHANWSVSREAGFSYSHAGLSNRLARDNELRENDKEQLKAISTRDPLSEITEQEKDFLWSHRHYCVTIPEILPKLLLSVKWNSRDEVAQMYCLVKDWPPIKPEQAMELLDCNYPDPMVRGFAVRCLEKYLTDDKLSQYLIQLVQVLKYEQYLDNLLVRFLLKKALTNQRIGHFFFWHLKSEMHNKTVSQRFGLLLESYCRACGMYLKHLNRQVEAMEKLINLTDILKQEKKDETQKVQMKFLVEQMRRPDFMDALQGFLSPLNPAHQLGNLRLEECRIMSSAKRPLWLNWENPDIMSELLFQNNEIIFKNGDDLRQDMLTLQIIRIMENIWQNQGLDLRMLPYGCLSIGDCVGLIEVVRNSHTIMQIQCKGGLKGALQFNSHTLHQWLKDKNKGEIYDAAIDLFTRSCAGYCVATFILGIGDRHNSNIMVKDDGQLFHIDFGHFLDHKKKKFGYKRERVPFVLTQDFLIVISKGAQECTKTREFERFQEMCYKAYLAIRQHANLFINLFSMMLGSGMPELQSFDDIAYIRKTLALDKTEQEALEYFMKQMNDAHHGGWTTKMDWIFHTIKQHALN
Method in brief: (§2)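 Fluorescence-polarization competition readout: after 30–60 min of PIP2/ATP turnover in 1% DMSO, a stop mix with GST-GRP (70 nM) and red probe (10 nM) was added.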

PI3K [2] = target: T3, PI3K (Homo sapiens, UniProt P48736); assay: Fluorescence polarization assay for PI3K; assay type: biochemical; settings: PI3 Kinase γ; read-out: PI3 Kinase γ IC50
T3 construct: PI3 Kinase γ IC50; other: PI3 Kinase γ; other: PI3 Kinase γ isoform, fluorescence polarization
T3 sequence (P48736 whole entry, canonical isoform): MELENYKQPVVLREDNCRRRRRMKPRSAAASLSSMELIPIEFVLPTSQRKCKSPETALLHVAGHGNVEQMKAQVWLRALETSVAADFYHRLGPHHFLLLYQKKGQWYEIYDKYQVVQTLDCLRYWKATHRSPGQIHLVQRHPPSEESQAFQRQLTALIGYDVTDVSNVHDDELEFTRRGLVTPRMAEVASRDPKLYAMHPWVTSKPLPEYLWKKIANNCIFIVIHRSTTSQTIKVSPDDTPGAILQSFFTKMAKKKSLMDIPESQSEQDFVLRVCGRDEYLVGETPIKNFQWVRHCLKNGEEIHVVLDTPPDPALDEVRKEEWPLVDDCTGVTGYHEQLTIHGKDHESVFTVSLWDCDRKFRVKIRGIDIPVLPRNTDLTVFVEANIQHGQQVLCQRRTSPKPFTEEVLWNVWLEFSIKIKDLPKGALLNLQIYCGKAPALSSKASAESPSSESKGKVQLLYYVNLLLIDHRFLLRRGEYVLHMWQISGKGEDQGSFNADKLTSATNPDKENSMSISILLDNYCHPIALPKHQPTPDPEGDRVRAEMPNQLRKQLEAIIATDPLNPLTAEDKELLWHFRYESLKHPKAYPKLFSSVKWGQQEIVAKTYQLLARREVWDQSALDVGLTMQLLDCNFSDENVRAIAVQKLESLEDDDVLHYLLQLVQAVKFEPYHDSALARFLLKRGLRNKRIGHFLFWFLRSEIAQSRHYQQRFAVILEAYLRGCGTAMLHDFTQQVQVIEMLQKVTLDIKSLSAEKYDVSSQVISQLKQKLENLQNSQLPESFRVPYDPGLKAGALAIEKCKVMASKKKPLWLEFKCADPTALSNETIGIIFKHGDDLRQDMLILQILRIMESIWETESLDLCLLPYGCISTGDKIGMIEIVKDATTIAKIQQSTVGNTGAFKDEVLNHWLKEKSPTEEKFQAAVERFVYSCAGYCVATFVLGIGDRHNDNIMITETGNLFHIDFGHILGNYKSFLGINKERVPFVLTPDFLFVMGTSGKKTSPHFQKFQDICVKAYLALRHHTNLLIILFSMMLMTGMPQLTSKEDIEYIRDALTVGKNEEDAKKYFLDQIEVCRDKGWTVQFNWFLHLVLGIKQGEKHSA
Method in brief: as §2

SMILES	pIC50 (prostate line LNCap)	pIC50 (Human mTOR (FLAG-TOR))	pIC50 (PI3K [1])	pIC50 (PI3K [2])	pIC50 (breast line MDA468)
O=C(Nc1ccc(-c2nc(N3CC4CCC(C3)O4)c3cnn(CCO)c3n2)cc1)OCCO [Example 195, 2-hydroxyethyl {4-[1-(2-hydroxyethyl)-4-(8-oxa-3-azabicyclo[3.2.1]oct-3-yl)-1H-pyrazolo[3,4-d]pyrimidin-6-yl]phenyl}carbamate]	6.19	8.31	5.73	< 5.00	5.82
O=C(NCCO)Nc1ccc(-c2nc(N3CC4CCC(C3)O4)c3cnn(CCO)c3n2)cc1 [Example 196, 1-(2-hydroxyethyl)-3-{4-[1-(2-hydroxyethyl)-4-(8-oxa-3-azabicyclo[3.2.1]oct-3-yl)-1H-pyrazolo[3,4-d]pyrimidin-6-yl]phenyl}urea]	5.00	8.66	6.22	5.13	4.89
O=C(Nc1ccc(-c2nc(N3CC4CCC(C3)O4)c3cnn(CCO)c3n2)cc1)NC1CC1 [Example 197, 1-cyclopropyl-3-{4-[1-(2-hydroxyethyl)-4-(8-oxa-3-azabicyclo[3.2.1]oct-3-yl)-1H-pyrazolo[3,4-d]pyrimidin-6-yl]phenyl}urea]	6.40	8.55	5.87	4.92	5.85
O=C(Nc1ccccc1)Nc1ccc(-c2nc(N3CC4CCC(C3)O4)c3cnn(CCO)c3n2)cc1 [Example 198, 1-{4-[1-(2-hydroxyethyl)-4-(8-oxa-3-azabicyclo[3.2.1]oct-3-yl)-1H-pyrazolo[3,4-d]pyrimidin-6-yl]phenyl}-3-phenylurea]	7.55	9.16	7.17	5.72	6.72
O=C(Nc1ccc(-c2nc(N3CC4CCC(C3)O4)c3cnn(CCO)c3n2)cc1)Nc1cccnc1 [Example 199, 1-{4-[1-(2-hydroxyethyl)-4-(8-oxa-3-azabicyclo[3.2.1]oct-3-yl)-1H-pyrazolo[3,4-d]pyrimidin-6-yl]phenyl}-3-pyridin-3-ylurea]	7.05	9.34	6.76	5.40	6.96
O=C(Nc1ccncc1)Nc1ccc(-c2nc(N3CC4CCC(C3)O4)c3cnn(CCO)c3n2)cc1 [Example 200, 1-{4-[1-(2-hydroxyethyl)-4-(8-oxa-3-azabicyclo[3.2.1]oct-3-yl)-1H-pyrazolo[3,4-d]pyrimidin-6-yl]phenyl}-3-pyridin-4-ylurea]	7.30	9.41	7.04	5.66	7.30
O=C(Nc1ccc(CO)cc1)Nc1ccc(-c2nc(N3CC4CCC(C3)O4)c3cnn(CCO)c3n2)cc1 [Example 201, 1-{4-[1-(2-hydroxyethyl)-4-(8-oxa-3-azabicyclo[3.2.1]oct-3-yl)-1H-pyrazolo[3,4-d]pyrimidin-6-yl]phenyl}-3-[4-(hydroxymethyl)phenyl]urea]	7.89	9.58	7.30	5.75	7.92
O=C(Nc1ccc(CCO)cc1)Nc1ccc(-c2nc(N3CC4CCC(C3)O4)c3cnn(CCO)c3n2)cc1 [Example 202, 1-{4-[1-(2-hydroxyethyl)-4-(8-oxa-3-azabicyclo[3.2.1]oct-3-yl)-1H-pyrazolo[3,4-d]pyrimidin-6-yl]phenyl}-3-[4-(2-hydroxyethyl)phenyl]urea]	9.00	9.67	7.36	5.67	8.40
CN1CCN(c2ccc(NC(=O)Nc3ccc(-c4nc(N5CC6CCC(C5)O6)c5cnn(CCO)c5n4)cc3)cc2)CC1 [Example 203, 1-{4-[1-(2-hydroxyethyl)-4-(8-oxa-3-azabicyclo[3.2.1]oct-3-yl)-1H-pyrazolo[3,4-d]pyrimidin-6-yl]phenyl}-3-[4-(4-methylpiperazin-1-yl)phenyl]urea]	9.00	8.97	6.98	5.94	8.70

Now from value to molecule, other results behind:

pIC50 (prostate line LNCap)	pIC50 (Human mTOR (FLAG-TOR))	pIC50 (PI3K [1])	pIC50 (PI3K [2])	SMILES	pIC50 (breast line MDA468)
8.22	9.31	6.56	4.95	O=C(Nc1ccc(-c2nc(N3CC4CCC(C3)O4)c3cnn(CCO)c3n2)cc1)Nc1ccc(N2CCOCC2)cc1 [Example 204, 1-{4-[1-(2-hydroxyethyl)-4-(8-oxa-3-azabicyclo[3.2.1]oct-3-yl)-1H-pyrazolo[3,4-d]pyrimidin-6-yl]phenyl}-3-(4-morpholin-4-ylphenyl)urea]	7.46
7.05	8.77	6.69	5.45	CN1CCN(c2ccc(NC(=O)Nc3ccc(-c4nc(N5CC6CCC(C5)O6)c5cnn(CCO)c5n4)cc3)cn2)CC1 [Example 205, 1-{4-[1-(2-hydroxyethyl)-4-(8-oxa-3-azabicyclo[3.2.1]oct-3-yl)-1H-pyrazolo[3,4-d]pyrimidin-6-yl]phenyl}-3-[6-(4-methylpiperazin-1-yl)pyridin-3-yl]urea]	7.10
6.72	9.15	6.33	4.93	O=C(Nc1ccc(-c2nc(N3CC4CCC(C3)O4)c3cnn(CCO)c3n2)cc1)Nc1ccc(N2CCOCC2)nc1 [Example 206, 1-{4-[1-(2-hydroxyethyl)-4-(8-oxa-3-azabicyclo[3.2.1]oct-3-yl)-1H-pyrazolo[3,4-d]pyrimidin-6-yl]phenyl}-3-(6-morpholin-4-ylpyridin-3-yl)urea]	6.92
4.85	6.84	5.44	< 5.00	Nc1ccc(-c2nc(N3CC4CCC(C3)O4)c3cnn(CCO)c3n2)cc1 [Example 207, 2-[6-(4-aminophenyl)-4-(8-oxa-3-azabicyclo[3.2.1]oct-3-yl)-1H-pyrazolo[3,4-d]pyrimidin-1-yl]ethanol]	4.42
6.66	8.09	5.73	< 5.00	CCOC(=O)Nc1ccc(-c2nc(N3CC4CCC(C3)O4)c3cnn(CCO)c3n2)cc1 [Example 208, ethyl {4-[1-(2-hydroxyethyl)-4-(8-oxa-3-azabicyclo[3.2.1]oct-3-yl)-1H-pyrazolo[3,4-d]pyrimidin-6-yl]phenyl}carbamate]	6.05
7.40	8.65	5.43	5.31	O=C(Nc1ccc(-c2nc(N3CC4CCC(C3)O4)c3cnn(C4CCN(CC(F)(F)F)CC4)c3n2)cc1)OCCO [Example 209, 2-hydroxyethyl (4-{4-(8-oxa-3-azabicyclo[3.2.1]oct-3-yl)-1-[1-(2,2,2-trifluoroethyl)piperidin-4-yl]-1H-pyrazolo[3,4-d]pyrimidin-6-yl}phenyl)carbamate]	6.22
8.40	9.03	5.76	< 5.00	O=C(Nc1ccc(-c2nc(N3CC4CCC(C3)O4)c3cnn(C4CCN(Cc5cccnc5)CC4)c3n2)cc1)OCCO [Example 210, 2-hydroxyethyl (4-{4-(8-oxa-3-azabicyclo[3.2.1]oct-3-yl)-1-[1-(pyridin-3-ylmethyl)piperidin-4-yl]-1H-pyrazolo[3,4-d]pyrimidin-6-yl}phenyl)carbamate]	6.96
7.77	9.05	5.67	< 5.00	O=C1CCC(n2ncc3c(N4CC5CCC(C4)O5)nc(-c4ccc(NC(=O)OCCO)cc4)nc32)CC1 [Example 211, 2-hydroxyethyl {4-[4-(8-oxa-3-azabicyclo[3.2.1]oct-3-yl)-1-(4-oxocyclohexyl)-1H-pyrazolo[3,4-d]pyrimidin-6-yl]phenyl}carbamate]	6.92
7.38	9.25	5.40	< 5.00	O=C(Nc1ccc(-c2nc(N3CC4CCC(C3)O4)c3cnn(C4CCC(O)CC4)c3n2)cc1)OCCO (stereo not drawn) [Example 212, 2-hydroxyethyl {4-[1-(4-hydroxycyclohexyl)-4-(8-oxa-3-azabicyclo[3.2.1]oct-3-yl)-1H-pyrazolo[3,4-d]pyrimidin-6-yl]phenyl}carbamate]	6.72
6.82	8.90	5.34	< 5.00	N#CCCn1ncc2c(N3CC4CCC(C3)O4)nc(-c3ccc(NC(=O)OCCO)cc3)nc21 [Example 213, 2-hydroxyethyl {4-[1-(2-cyanoethyl)-4-(8-oxa-3-azabicyclo[3.2.1]oct-3-yl)-1H-pyrazolo[3,4-d]pyrimidin-6-yl]phenyl}carbamate]	6.00
6.68	8.82	6.14	< 5.00	CNC(=O)Nc1ccc(-c2nc(N3CC4CCC(C3)O4)c3cnn(CCC#N)c3n2)cc1 [Example 214, 1-{4-[1-(2-cyanoethyl)-4-(8-oxa-3-azabicyclo[3.2.1]oct-3-yl)-1H-pyrazolo[3,4-d]pyrimidin-6-yl]phenyl}-3-methylurea]	6.24
7.11	8.87	5.44	< 5.00	N#CCCn1ncc2c(N3CC4CCC(C3)O4)nc(-c3ccc(NC(=O)NC4CC4)cc3)nc21 [Example 215, 1-{4-[1-(2-cyanoethyl)-4-(8-oxa-3-azabicyclo[3.2.1]oct-3-yl)-1H-pyrazolo[3,4-d]pyrimidin-6-yl]phenyl}-3-cyclopropylurea]	6.10
